Consider 16 molecules from PubChem BioAssay AID504479 (NMMLSC, 2011).

Some test systems named below: YNL142W; YKL103C; BY4741; YCR005C; YBR084C-A; YCL025C.
What all share (test): GFP reporter expression in TORC1-bypass yeast, mechanism study for yeast TOR pathway modulator project, S. cerevisiae, TORC1 bypass vs wild-type strains (AID 504479)
What all share (settings): fluorescence ratio vs DMSO, at 10 µM

Setting [1] is: MEP2-GFP in TORC1 bypass strain, stronger effect = higher value.
[2] abbreviates: LAP4-GFP in TORC1 bypass strain, stronger effect = higher value.
The mark [3] stands for this setting: CIT2-GFP in TORC1 bypass strain, stronger effect = higher value.
Setting [4] is: RPL19A-GFP in TORC1 bypass strain, stronger effect = lower value.
Setting [5] is: AGP1-GFP in TORC1 bypass strain, stronger effect = higher value.

Each structure is given as a SMILES string. The source made the active and inactive calls.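 The calls were made as follows: active = GFP ratio vs DMSO below 0.65 in a strain, using the primary screen cutoff set for that strain's protein target; inactive = the rest.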

Regarding `CCOC(=O)c1c(C)oc2c1c(C(c1cccnc1)N1CCOCC1)c(O)c1ccccc12` (stereo unspecified), the GFP ratio vs DMSO in the experiment with YNL142W (setting [1]) was 1.08; in the experiment with YNL142W, 1.27 (inactive); with YKL103C (setting [2]) it was 1.21; in the experiment with YKL103C it was 2.09; in the experiment on BY4741 it was 1.09 (inactive); in the experiment with YCR005C (setting [3]), 0.839. For the same molecule, the GFP ratio vs DMSO was 1.12 (inactive) with YCR005C; 1.1 with YBR084C-A (setting [4]); 0.914 (inactive) in the experiment on YBR084C-A; 0.642 in the experiment on YCL025C (setting [5]); 0.972 (inactive) with YCL025C.

Turning to `CC(C)(C)C(=O)NC(=S)NNC(=O)c1ccc(-c2ccccc2)cc1`, the GFP ratio vs DMSO was 1.27 with YNL142W (setting [1]); 1.51 (inactive) in the experiment with YNL142W; 1.47 in the experiment on YKL103C (setting [2]); 2.48 in the experiment with YKL103C; 1.36 (inactive) in the experiment on BY4741; 0.935 in the experiment on YCR005C (setting [3]). Also, the GFP ratio vs DMSO in the experiment on YCR005C was 1.37 (inactive); with YBR084C-A (setting [4]), 1.2; in the experiment with YBR084C-A, 1.25 (inactive); in the experiment with YCL025C (setting [5]), 1.03; in the experiment with YCL025C, 1.07 (inactive).

Regarding `C/C(=N\NC(=O)c1ccc(C(C)(C)C)cc1)c1ccccn1`, the GFP ratio vs DMSO in the experiment on YNL142W (setting [1]) was 0.969; in the experiment with YNL142W, 0.804 (inactive); with YKL103C (setting [2]), 0.982; in the experiment with YKL103C, 1.13 (inactive); in the experiment with BY4741 it was 1.12 (inactive); with YCR005C (setting [3]), 0.847. Also, the GFP ratio vs DMSO is 0.835 (inactive) with YCR005C; 0.974 in the experiment with YBR084C-A (setting [4]); 1.03 (inactive) with YBR084C-A; 0.884 in the experiment with YCL025C (setting [5]); 0.896 (inactive) in the experiment with YCL025C.

Regarding `O=C(OCC(=O)N1CCN(C(=O)c2ccco2)CC1)c1cc(-c2cccc(Br)c2)nc2ccccc12`, the GFP ratio vs DMSO in the experiment with YNL142W (setting [1]) is 1.01; with YNL142W, 1.09 (inactive); in the experiment with YKL103C (setting [2]) it was 0.965; in the experiment on YKL103C, 1.37 (inactive); with BY4741, 0.833 (inactive); with YCR005C (setting [3]) it was 0.954. Also, the GFP ratio vs DMSO in the experiment on YCR005C was 1.19 (inactive); with YBR084C-A (setting [4]), 0.991; in the experiment on YBR084C-A it was 0.79 (inactive); with YCL025C (setting [5]), 1.08; with YCL025C it was 1.2 (inactive).

As for `O=C(NC(=S)NNC(=O)c1cnccn1)c1ccc(F)cc1`, the GFP ratio vs DMSO was 0.971 in the experiment on YNL142W (setting [1]); 1.07 (inactive) with YNL142W; 1.35 in the experiment on YKL103C (setting [2]); 1.64 in the experiment with YKL103C; 0.925 (inactive) in the experiment on BY4741; 0.691 in the experiment with YCR005C (setting [3]). Also, the GFP ratio vs DMSO was 0.716 (inactive) in the experiment with YCR005C; 0.827 in the experiment on YBR084C-A (setting [4]); 0.877 (inactive) in the experiment on YBR084C-A; 0.606 in the experiment on YCL025C (setting [5]); 0.808 (inactive) in the experiment on YCL025C.

On to `CCc1ccc(OCC(=O)NNC(=S)NC(=O)C2CC2)c(Br)c1`, for which the GFP ratio vs DMSO was 1.13 in the experiment with YNL142W (setting [1]); 1.23 (inactive) in the experiment on YNL142W; 1.3 in the experiment on YKL103C (setting [2]); 2.76 with YKL103C; 1.41 (inactive) in the experiment on BY4741; 0.796 with YCR005C (setting [3]). For the same molecule, the GFP ratio vs DMSO with YCR005C is 0.882 (inactive); in the experiment on YBR084C-A (setting [4]), 1.03; with YBR084C-A it was 1.15 (inactive); in the experiment with YCL025C (setting [5]) it was 0.819; in the experiment on YCL025C, 1.1 (inactive).

Regarding `Cc1cc(C(=O)Nc2nc(-c3ccccn3)cs2)ccc1[N+](=O)[O-]`, the GFP ratio vs DMSO was 1.04 in the experiment with YNL142W (setting [1]); 0.972 (inactive) in the experiment on YNL142W; 0.998 in the experiment with YKL103C (setting [2]); 1.02 (inactive) in the experiment on YKL103C; 0.896 (inactive) in the experiment on BY4741; 0.839 in the experiment with YCR005C (setting [3]). The GFP ratio vs DMSO in the experiment with YCR005C is 0.907 (inactive); in the experiment on YBR084C-A (setting [4]), 0.905; in the experiment with YBR084C-A, 0.985 (inactive); in the experiment with YCL025C (setting [5]) it was 1.03; with YCL025C it was 1.05 (inactive).

Take `COc1ccc([N+](=O)[O-])c(S(=O)(=O)c2ccccc2)n1`: the GFP ratio vs DMSO is 0.877 with YNL142W (setting [1]); 1.03 (inactive) in the experiment on YNL142W; 1.33 with YKL103C (setting [2]); 1.97 in the experiment with YKL103C; 0.896 (inactive) in the experiment on BY4741; 0.862 with YCR005C (setting [3]). Moreover, the GFP ratio vs DMSO with YCR005C was 0.792 (inactive); in the experiment with YBR084C-A (setting [4]) it was 0.924; in the experiment on YBR084C-A it was 0.967 (inactive); in the experiment on YCL025C (setting [5]), 0.971; with YCL025C it was 1.14 (inactive).

With `Cn1ncc(S(=O)(=O)Cc2ccccc2)c(Cl)c1=O`, the GFP ratio vs DMSO with YNL142W (setting [1]) is 0.971; with YNL142W, 1.46 (inactive); in the experiment on YKL103C (setting [2]), 1.56; in the experiment on YKL103C it was 1.63; in the experiment with BY4741, 1.31 (inactive); in the experiment on YCR005C (setting [3]), 1.02. For the same molecule, the GFP ratio vs DMSO in the experiment with YCR005C is 1.15 (inactive); in the experiment with YBR084C-A (setting [4]), 0.786; with YBR084C-A, 0.76 (inactive); with YCL025C (setting [5]), 0.801; in the experiment on YCL025C, 0.984 (inactive).

For `O=[N+]([O-])c1cc(Cl)c2cccnc2c1O`, the GFP ratio vs DMSO was 0.964 in the experiment with YNL142W (setting [1]); 0.937 (inactive) in the experiment on YNL142W; 1.17 with YKL103C (setting [2]); 1.52 with YKL103C; 0.755 (inactive) in the experiment with BY4741; 0.67 in the experiment with YCR005C (setting [3]). The GFP ratio vs DMSO with YCR005C was 0.937 (inactive); in the experiment with YBR084C-A (setting [4]) it was 0.937; in the experiment on YBR084C-A, 1.04 (inactive); in the experiment on YCL025C (setting [5]) it was 0.738; in the experiment on YCL025C, 0.999 (inactive).

For `CSC1=NS(=O)(=O)c2c(C)nn(C)c2S1`, the GFP ratio vs DMSO was 0.862 in the experiment on YNL142W (setting [1]); 0.972 (inactive) in the experiment on YNL142W; 1.06 with YKL103C (setting [2]); 1.36 (inactive) with YKL103C; 0.833 (inactive) in the experiment with BY4741; 0.826 in the experiment on YCR005C (setting [3]). In addition, the GFP ratio vs DMSO in the experiment on YCR005C was 0.78 (inactive); with YBR084C-A (setting [4]), 0.9; with YBR084C-A, 0.887 (inactive); in the experiment on YCL025C (setting [5]), 0.961; in the experiment on YCL025C, 1.01 (inactive).

For the molecule `Clc1ccc(N=c2ssnc2Cl)cc1`, the GFP ratio vs DMSO is 1.08 in the experiment with YNL142W (setting [1]); 1.04 (inactive) in the experiment with YNL142W; 1.29 with YKL103C (setting [2]); 1.64 in the experiment on YKL103C; 1.09 (inactive) in the experiment on BY4741; 1.02 in the experiment on YCR005C (setting [3]). The GFP ratio vs DMSO is 1.25 (inactive) with YCR005C; 1.08 in the experiment on YBR084C-A (setting [4]); 1.02 (inactive) with YBR084C-A; 0.884 in the experiment with YCL025C (setting [5]); 0.946 (inactive) with YCL025C.

On to `O=[N+]([O-])c1ccc(O)c2ncccc12`, for which the GFP ratio vs DMSO in the experiment on YNL142W (setting [1]) is 1.06; in the experiment with YNL142W, 1.21 (inactive); in the experiment with YKL103C (setting [2]) it was 1.88; in the experiment with YKL103C it was 3.01; with BY4741, 1.4 (inactive); with YCR005C (setting [3]), 0.748. Further, the GFP ratio vs DMSO is 1.27 (inactive) with YCR005C; 1.18 in the experiment on YBR084C-A (setting [4]); 1.23 (inactive) with YBR084C-A; 0.99 in the experiment with YCL025C (setting [5]); 1.14 (inactive) in the experiment on YCL025C.

Turning to `O=C(Oc1c(Cl)cc(Cl)c2cccnc12)c1cccc([N+](=O)[O-])c1`, the GFP ratio vs DMSO with YNL142W (setting [1]) was 1.01; in the experiment on YNL142W, 0.95 (inactive); with YKL103C (setting [2]), 1.15; with YKL103C, 1.68; in the experiment on BY4741 it was 0.774 (inactive); in the experiment with YCR005C (setting [3]) it was 0.791. For the same molecule, the GFP ratio vs DMSO in the experiment on YCR005C is 1.07 (inactive); in the experiment on YBR084C-A (setting [4]) it was 1.12; in the experiment on YBR084C-A, 1.18 (inactive); in the experiment on YCL025C (setting [5]), 0.717; in the experiment on YCL025C, 0.875 (inactive).

Turning to `O=C(OCn1ncc(Br)c(Br)c1=O)c1c(F)cccc1F`, the GFP ratio vs DMSO in the experiment on YNL142W (setting [1]) was 0.876; in the experiment with YNL142W, 0.897 (inactive); in the experiment with YKL103C (setting [2]), 1.37; in the experiment on YKL103C, 1.86; with BY4741 it was 0.824 (inactive); with YCR005C (setting [3]) it was 0.891. The GFP ratio vs DMSO was 1.02 (inactive) with YCR005C; 1.05 in the experiment with YBR084C-A (setting [4]); 1 (inactive) with YBR084C-A; 0.715 with YCL025C (setting [5]); 0.903 (inactive) in the experiment on YCL025C.

Regarding `CC(C)(C)C(=O)C(Cl)C(=O)Nc1ccccc1` (stereo unspecified), the GFP ratio vs DMSO with YNL142W (setting [1]) is 0.969; in the experiment with YNL142W, 1.24 (inactive); in the experiment on YKL103C (setting [2]), 1.5; with YKL103C, 2.76; in the experiment on BY4741, 0.941 (inactive); in the experiment with YCR005C (setting [3]) it was 1.58. Besides, the GFP ratio vs DMSO in the experiment with YCR005C was 1.65; in the experiment on YBR084C-A (setting [4]) it was 0.997; in the experiment on YBR084C-A, 0.885 (inactive); in the experiment with YCL025C (setting [5]), 0.833; in the experiment on YCL025C it was 1.2 (inactive).
